Results as given in US11840499B2, “Biobased-fatty acid arginates” (priority 2020, dated 2023).
Read-outs that look alike come from different tables or passages of the source.

Key:
[1] = tested on: Gram-positive Listeria innocua (ATCC 33090); assay: Antimicrobial activity (MIC/MBC) against Listeria innocua; format: cell-based
Experimental: (§1) Antimicrobial activity studies were performed using standard methods. For all compounds, at least 3 independent replicates of quadruplicate tests were conducted. The minimum inhibitory concentration (MIC) was determined as the lowest test compound concentration for which no color change (no active growth) occurred. Minimum bactericidal concentration (MBC) was determined by spreading 100 μl from each growth-negative well onto TSA and incubating at 37° C. for 24 h. MBC was the […] where no viable growth occurred.

[2] = tested on: Gram-negative Escherichia coli (ATCC 700728); assay: microbe, parasite or virus in culture; format: cell-based; settings: for MIC / MBC: E. coli; for MIC: lowest concentration with no color change (no active growth); for MBC: no viable growth on TSA, 37° C., 24 h
Experimental: as §1

[3] = Surfactant properties: surface tension by drop image method, CMC; format: physicochemical; settings: aqueous solution
Experimental: Samples of the analyte were weighed and dissolved in distilled water to make a 10 mM stock solution. The stock solution was then subsequently diluted to make 5 mM, 1 mM, 0.5 mM, 0.25 mM, 0.125 mM, and 0.0625 mM solutions. The series of solutions were used to measure the surface tension using a drop image method with a surface tension instrument. Measurement for each sample was done in triplicate and the average value was calculated. Critical micelle concentration (CMC) is the concentration above which micelles form in the surfactant solution.

[4] = Escherichia coli, ATCC700728, read-out: MIC
[5] = Escherichia coli, ATCC700728, read-out: MBC
[6] = L. innocua, lowest concentration with no color change (no active growth)
[7] = L. innocua, no viable growth on TSA, 37° C., 24 h
[8] = Listeria innocua, ATCC33090, 24 h

Row | Compound | MIC [2, 4] [µg/mL] | MBC [2, 5] [µg/mL] | MIC [1, 6] [ppm] | MBC [1, 7] [ppm] | MIC [2] [ppm] | MBC [2] [ppm] | also measured
1 | CCCCCCCCCCCC(=O)N[C@@H](CCCNC(=N)N)C(=O)OCC.Cl [Ethyl lauroyl arginate, ethyl-N^α-lauroyl-L-arginate HCl, reference compound] | 7.3 | 7.3 |  |  |  |  | MIC ([1]; Listeria innocua, ATCC33090, L. innocua, lowest concentration with no color change (no active growth), read-out: MIC): 7.3 µg/mL; MBC ([1]; Listeria innocua, ATCC33090, L. innocua, no viable growth on TSA, 37° C., 24 h, read-out: MBC): 14.5 µg/mL
2 | N=C(N)NCCC[C@H](N)C(=O)O [L-arginine (commercial), L-arginine] | > 233 | > 233 | >232.7 | >232.7 |  |  | MIC ([1]; Listeria innocua, ATCC33090): > 233 µg/mL; MBC [1, 8]: > 233 µg/mL
3 | CCOC(=O)[C@@H](N)CCCNC(=N)N.Cl.Cl [L-arginine ethyl ester dihydrochloride] | > 233 | > 233 |  |  |  |  | MIC ([1]; Listeria innocua, ATCC33090): > 233 µg/mL; MBC [1, 8]: > 233 µg/mL
4 | CCCCCCCC/C=C\CCCCCCCC(=O)O [Oleic acid] | > 233 | > 233 | >232.7 | >232.7 |  |  | MIC ([1]; Listeria innocua, ATCC33090): > 233 µg/mL; MBC [1, 8]: > 233 µg/mL
5 | CCCCCCCC/C=C\CCCCCCCC(=O)N[C@@H](CCCNC(=N)N)C(=O)OCC [Oleic arginate] |  |  | 3.6 | 3.6 | 116.4 | 116.4 | antimicrobial activity (in words) ([2]; Escherichia coli (ATCC 700728)): weak activity
6 | CCCCCCCCCCCCOS(=O)(=O)[O-].[Na+] [SDS] |  |  |  |  |  |  | critical micelle concentration (CMC), compared to LAE [3]: much higher; surface tension level reached with increasing surfactant concentration ([3]; 0.0625-10 mM): 38 mN/m
7 | CCCCCCCCCCCCCCCCCC(=O)N[C@@H](CCCNC(=N)N)C(=O)OCC [Stearic arginate] |  |  | 14.5 | 29.1 | >232.7 | >232.7 | 
8 | Isooleic acid |  |  | >232.7 | >232.7 | >232.7 | >232.7 | 
9 | Isooleic arginate |  |  | 1.8 | 1.8 | >232.7 | >232.7 | 
10 | Isostearic arginate |  |  | 3.6 | 7.3 | >232.7 | >232.7 | 
11 | Oleic phenol arginate |  |  | 1.2 | 5.0 | >232.7 | >232.7 | 
12 | Soy thymol arginate |  |  | 3.6 | 14.5 | >232.7 | >232.7 | 
